# Data: patent publication EP3294317B1, “ENHANCED ANTIBIOTIC COMPOSITION” (Universitat Autònoma de Barcelona, priority 2015, dated 2016)
# What was measured:
# A. baumannii 6963 = test: Colistin broth microdilution MIC with potentiator compounds, resistant clinical isolates (Example 3); format: cell-based, Acinetobacter baumannii; details: MIC in the presence of 1.0% DMSO / MIC in the presence of 0.1 mM compound and 1.0% DMSO, positive = increased susceptibility, 1 = no effect
# Procedure: (§1) The potentiator effect of the compound of the invention and other compounds disclosed herein was tested using colistin sulfate as antibiotic and in combination with the enhancer compounds in front of resistant clinical isolates.
# (§2) Tests were performed to determine the potentiator effect of the compound of the invention and other compounds disclosed herein with multidrug-resistant S. maltophilia and A. baumannii clinical strains as shown in Table 5: TABLE 5
# (§3) For this experiment the potentiator compound was added to a colistin broth microdilution assay at a final concentration of 0.1mM. MICs were determined as described in the Example 1.
# (§4) Colistin minimal inhibitory concentration (MIC), expressed in µg/mL, and the fold increase in bacterial susceptibility to colistin when combined with the potentiator compound (expressed as MIC in the presence of 1.0% DMSO / MIC in the presence of 0.1 mM of each potentiator compound and 1.0% DMSO) are shown in Table 6: […]
# A. baumannii 6799 = test: as above; format: cell-based, Acinetobacter baumannii; details: MIC in the presence of 1.0% DMSO / MIC in the presence of 0.1 mM compound and 1.0% DMSO, positive = increased susceptibility, 1 = no effect
# Procedure: as §1, §2, §3, §4
# [1] = tested on: Pseudomonas aeruginosa ATCC 27853; test: Colistin broth microdilution MIC with potentiator compounds (Example 1); format: cell-based; details: P. aeruginosa ATCC 27853; MIC in the presence of 1.0% DMSO / MIC in the presence of 0.1 mM potentiator compound and 1.0% DMSO; positive = increased, negative = decreased susceptibility, 1 = no effect
# [2] = tested on: Acinetobacter baumannii ATCC 15308; test: as above; format: cell-based; details: A. baumannii ATCC 15308; MIC in the presence of 1.0% DMSO / MIC in the presence of 0.1 mM potentiator compound and 1.0% DMSO; positive = increased, negative = decreased susceptibility, 1 = no effect
structure (smiles),measurement,setting,value
"CN(C)CCNC(=O)c1cccc(CNC(=O)Nc2ccc3c(c2)Cc2ccccc2-3)c1 [I, N-[2-(dimethylamino)ethyl]-3-[(9H-fluoren-2-ylcarbamoylamino)methyl]benzamide]",Fold increase in bacterial susceptibility to colistin,A. baumannii 6963,>4 fold
same,Fold increase in bacterial susceptibility to colistin,A. baumannii 6799,+8 fold
same,Fold increase in bacterial susceptibility to colistin,[1],+2 fold
same,Fold increase in bacterial susceptibility to colistin,[2],+4 fold
